The text below walks through data of US8536187B2 (Gilead Sciences, Inc., priority 2008, dated 2013).

Molecules are shown by their SMILES.

A word on the EC50: it is the concentration that produces a half-maximal response. Low values mean higher potency in that assay, high ones lower potency in that assay. Usually CC50 stands for the concentration giving 50% cytotoxicity. Read a high CC50 as lower toxicity to the cells.

The subject of data set [1] is HCV replicon in human hepatoma Huh-7 cell line. Kind of data set: Anti-HCV replicon assay, EC50 (luciferase luminescence). The data set is classed as cell-based. Particulars: Hepatitis C virus, Huh-7, 72 h. The procedure, abridged:
(§1)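 Cytotoxicity (CC50) read by CellTiter-Glo luminescence after 10 min, and antiviral EC50 by luciferase signal after 30 min lysis with substrate, both at room temperature. Preceding step: 3-day exposure of 6000 Huh-7 HCV replicon cells per well to compound dilution series at 37° C, 5% CO2, in 0.5% DMSO.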
(In general: In antiviral work, replicon cells carry a viral genome segment that copies itself.)

Data set [2] can be described thus: CC50 assay (CellTiter-Glo) in Huh-7 HCV replicon cells. The format is cell-based. The settings on record: human. In outline:
as §1

`CS(=O)(=O)c1cc(-c2ccc3nc(NCc4ccc(-n5cncn5)cc4)nc(O[C@@H]4C[C@@H]5C[C@@H]5C4)c3n2)ccc1OC(F)F` [Example 195, N-(4-(1H-1,2,4-triazol-1-yl)benzyl)-4-((1S,3r,5R)-bicyclo[3.1.0]hexan-3-yloxy)-6-(4-(difluoromethoxy)-3-(methylsulfonyl)phenyl)pyrido [3,2-d]pyrimidin-2-amine]: the EC50 in data set [1] was less than 100 nM. Moreover, in data set [2] (Table 2, 3 days incubation), the CC50 at 3 days lay in the range of 1000 to 10000 nM.

Regarding `COc1ccc(-c2ccc3nc(NCc4ccc(-n5cccn5)cc4)nc(NCC(F)(F)F)c3n2)cc1S(N)(=O)=O` [Example 236, 5-(2-(4-(1H-pyrazol-1-yl)benzylamino)-4-(2,2,2-trifluoroethylamino)pyrido [3,2-d]pyrimidin-6-yl)-2-methoxybenzenesulfonamide], the EC50 in data set [1] was less than 100 nM. Moreover, in data set [2] (Table 2, 3 days incubation), the CC50 at 3 days lay in the range of 1000 to 10000 nM.

With `CC#Cc1ccc2nc(NCc3cc(Cl)cc(S(N)(=O)=O)c3)nc(OC3(C)CC3)c2n1` [Example 311, 3-chloro-5-((4-(1-methylcyclo-propoxy)-6-(prop-1-ynyl)pyrido [3,2-d]pyrimidin-2-ylamino)methyl)benzenesulfonamide], the EC50 in data set [1] was less than 100 nM. In data set [2] (Table 2, 3 days incubation), this compound came in with a 50% cytotoxic concentration (CC50) at 3 days greater than 10000 nM.

Compound `C[C@@H](Nc1nc(OC2CCC2)c2nc(-c3ccc(OC4CC4)nc3)ccc2n1)c1ccc(S(N)(=O)=O)cc1` [Example 252, 4-((R)-1-(4-cyclobutoxy-6-(6-cyclopropoxypyridin-3-yl)pyrido[3,2-d]pyrimidin-2-ylamino)ethyl)benzene-sulfonamide] had an EC50 in data set [1] of less than 100 nM. Besides, the CC50 at 3 days in data set [2] (Table 2, 3 days incubation) was in the range of 1000 to 10000 nM.

On to `C[C@@H](Nc1nc(NCC(F)(F)F)c2nc(-c3cccc(S(C)(=O)=O)c3)ccc2n1)c1ccc(S(N)(=O)=O)cc1` [Example 17, (R)-4-{1-[6-(3-Methanesulfonyl-phenyl)-4-(2,2,2-trifluoro-ethylamino)-pyrido[3,2-d]pyrimidin-2-ylamino]-ethyl}-benzenesulfonamide], for which the EC50 in data set [1] was less than 100 nM. The compound further returned a cytotoxic concentration (CC50) at 3 days in data set [2] (Table 1, 3 days incubation) of 10000 to 25000 nM.

Compound `FC(F)(F)CNc1nc(NCc2ccc(-n3cncn3)cc2)nc2ccc(-c3cnc(OC4CC4)nc3)nc12` [Example 253, N^2-(4-(1H-1,2,4-triazol-1-yl)benzyl)-6-(2-cyclopropoxy-pyrimidin-5-yl)-N^4-(2,2,2-trifluoroethyl)pyrido[3,2-d] pyrimidine-2,4-diamine] displayed a half-maximal effective concentration (EC50) in data set [1] of less than 100 nM. The CC50 at 3 days in data set [2] (Table 2, 3 days incubation) was greater than 10000 nM.

As for `FC(F)(F)CNc1nc(NCc2ccc(-n3cncn3)cc2)nc2ccc(C#CC3CC3)nc12` [Example 287, N^2-(4-(1H-1,2,4-triazol-1-yl)benzyl)-6-(2-cyclopropyl-ethynyl)-N^4-(2,2,2-trifluoroethyl) pyrido[3,2-d]pyrimidine-2,4-diamine], the concentration for a half-maximal effect (EC50) in data set [1] was in the range of 100 to 250 nM. Also, the half-maximal cytotoxic concentration (CC50) at 3 days in data set [2] (Table 2, 3 days incubation) is greater than 10000 nM.

Compound `COc1ccc(-c2ccc3nc(NCc4ccc(-n5cncn5)cc4)nc(NCC(F)(F)F)c3n2)cc1S(N)(=O)=O` [Example 237, 5-(2-(4-(1H-1,2,4-triazol-1-yl)benzylamino)-4-(2,2,2-trifluoroethylamino)pyrido [3,2-d]pyrimidin-6-yl)-2-methoxybenzenesulfonamide] came in with an EC50 in data set [1] of less than 100 nM. The compound also displayed a CC50 at 3 days in data set [2] (Table 2, 3 days incubation) greater than 10000 nM.

For `COc1ccc(-c2ccc3nc(NCc4ccc(S(N)(=O)=O)cc4)nc(NC4(C(F)(F)F)CC4)c3n2)cc1S(C)(=O)=O` [Example 28, 4-{[6-(3-Methanesulfonyl-4-methoxy-phenyl)-4-(1-trifluoromethyl-cyclopropylamino)-pyrido[3,2-d]pyrimidin-2-ylamino]-methyl}-benzenesulfonamide], in data set [1], the concentration for a half-maximal effect (EC50) was less than 100 nM. In data set [2] (Table 2, 3 days incubation), this compound yielded a CC50 at 3 days of 1000 to 10000 nM.

Turning to `C[C@@H](Nc1nc(NC2(C(F)(F)F)CC2)c2nc(C#CC3CC3)ccc2n1)c1ccc(S(N)(=O)=O)cc1` [Example 69, (R)-4-(1-(6-(2-cyclopropylethynyl)-4-(1-(trifluoromethyl)cyclopropyl-amino)pyrido[3,2-d]pyrimidin-2-ylamino)ethyl)benzene-sulfonamide], the half-maximal effective concentration (EC50) in data set [1] was less than 100 nM. In data set [2] (Table 2, 3 days incubation), this compound gave a CC50 at 3 days greater than 10000 nM.
